Assays:
active β-catenin = experiment: Western blot for active β-catenin in differentiating LCPs; assay type: cell-based, mouse; conditions: western blot after 4 days of differentiation, relative to untreated control
Procedure: Western blot analysis. For protein collection, cells were washed twice with PBS and then lysed by lysis buffer (20 mM HEPES, 400 mM NaCl, 1 mM EDTA, 0.1% NP-40 and 10% Glycerol) supplemented with HALT protease and phosphatase inhibitors (Thermo Fisher Scientific, Waltham, MA). Lysates were then centrifuged at 13,000 g for 15 min at 4° C., and each supernatant was collected. Protein concentration was determined using the Pierce BCA Protein Assay Kit (Pierce Biotechnology, Rockford, IL). Proteins within each lysate were separated by SDS-PAGE (Bio-Rad Laboratories, Inc., Hercules, CA) and transferred to polyvinylidene difluoride membranes. After incubation with primary antibody, membranes were washed with Tris-buffered saline with Tween 20 and exposed to an appropriate horseradish peroxidase-conjugated secondary antibody (Santa Cruz Biotechnology, Santa Cruz, CA); immunoblot signals were detected with Pierce ECL Western blotting substrate or ECL plus (Thermo Fisher Scientific, Waltham, MA).
Active canonical Wnt signaling is facilitated by the nuclear translocation of β-catenin, which binds with transcription factors of the Tcf/Lef family to activate transcription. To further validate our RNA-sequencing data, we proceeded to examine the levels of active β-catenin using western blot after pargyline treatment. […] We also analyzed Wnt activity in the treated cells using a Tcf/Lef reporter assay.

Hes1 = experiment: qRT-PCR of Hes1 in adult cochlea after noise damage and drug treatment; assay type: in vivo, mouse; conditions: 3 days after drug treatment of noise-damaged animals
Procedure: (§1) RNA extraction and PCR. For the LCPs, the organoids were treated with Cell Recovery Solution for at 1 hour and TrypleE for 20 minutes, then frozen in RLT buffer. RNA extractions were performed using the RNeasy Micro Kit (QIAGEN) and cDNA generated using ImProm-II Reverse Transcription Kit (Promega). TaqMan Real-Time PCR was performed in triplicates using the TaqMan Gene Expression Master Mix (ThermoFisher Scientific) on a StepOne Real-Time PCR machine (ThermoFisher Scientific). Ordinary One-way Anova was used to assess statistical significance. A minimum of three biologically distinct samples were analyzed for each condition.
(§2) Round window drug administration. We used four-week-old mice weighing 12-15 g. The animals were anesthetized with ketamine ([…], intraperitoneally [i.p.]) and xylazine ([…], i.p.) prior to surgery. An incision was made posterior to the pinna near the external meatus to expose the otic bulla and subsequently the round window niche. pargyline and CHIR99021 dissolved in DMSO were diluted in polyethylene glycol 400 (Sigma) to obtain final concentrations of 0.1 and 5 mM. This solution (total volume 1 ul) was injected into the round window niche of the left ear. Polyethylene glycol 400 with 10% DMSO was injected into the right ear as a control. Gelfoam was placed on the niche to maintain the solution, and the wound was closed. […]

Axin2 = experiment: qRT-PCR of Axin2 in adult cochlea after noise damage and drug treatment; assay type: in vivo, mouse; conditions: 3 days after drug treatment of noise-damaged animals, p<0.05
Procedure: as §1, §2

Atoh1 = experiment: qRT-PCR of Atoh1 in adult cochlea after noise damage and drug treatment; assay type: in vivo, mouse; conditions: deaf adult cochlea relative to the control, 3 days after treatment, p<0.05
Procedure: as §1, §2

[1] = tested on: Lgr5-expressing cochlear progenitors cells (LCPs); experiment: Proliferation of Lgr5+ cochlear progenitors (LCPs) in organoid culture; assay type: cell-based, mouse; conditions: first 10 days in culture, Lgr5-nGFP mice cells, combined with CHIR99021
Procedure: Isolation and expansion of inner ear Lgr5+ cells. A recently published protocol was used to derive organoids from inner ear stem cells [also referred to as Lgr5+ cochlear progenitors (LCPs) (McLean et al., 2017). Briefly, the organ of Corti was dissected from neonatal mice (postnatal days 2-5) in Hank's balanced salt solution and treated with Cell Recovery Solution (Corning) for 1 hour. The cochlear epithelium was then peeled from the underlying mesenchyme, collected and treated with TrypleE for 20 minutes at 37° C. The single cells were mechanically triturated, filtered ([…] cell strainer) and suspended in a Matrigel (Corning) dome for 3D culture. The cells were seeded in a 24-well plate, specifically at one cochlea per well of a 24-well plate.
For the drug screening experiments, the expanded cells were passaged into a 96 well plate to test varying drug combinations. All experiments were done in triplicate at minimum. Atoh1-nGFP cells were quantified after 10 days in culture. The cell colonies were incubated in Cell Recovery Solution for 1 hour and dissociated into single cells using TrypleE. The total cell number and percentage of GFP+ cells were quantified using fluorescence activated cell sorting (FACS).
We screened a collection of Lsd1 inhibitors over the first 10 days in culture (FIGS. 9A and 9B) to examine their effect on proliferation of LCPs (FIGS. 9C and 9D). […]

| SMILES | active β-catenin, fold change (active β-catenin) | Hes1 mRNA level (Hes1) | Axin2 mRNA level (Axin2) | Atoh1 mRNA level (Atoh1) | proliferation of Lgr5 cells (LCP cell division) [1] |
| --- | --- | --- | --- | --- | --- |
| Cc1c[nH]c(-c2cnc(NCCNc3ccc(C#N)cn3)nc2-c2ccc(Cl)cc2Cl)n1 [CHIR99021] | 2.95 fold | reduced levels | significantly higher levels | significantly elevated |  |
| CCCC(CCC)C(=O)O [valproic acid] |  |  |  |  | 63% |

Reference: US20240245702A1, “Inhibition of Lysine Demethylase 1 (Lsd1) Induces Differentiation of Hair Cells” (Massachusetts Eye and Ear Infirmary, priority 2018, published 2024)
